Calls of active or inactive are those of the source. The calls are words filed in the database; no cut-off is given here.
What was measured:
[1] = Toxicity in BALB/c mouse wound infection model assessed as kidney damage measured for 9 days by H and E staining based analysis; format: tissue-based; settings: in vivo, 216 h, time 9 day
[2] = tested on: Pseudomonas aeruginosa; assay: Antibacterial activity against Pseudomonas aeruginosa PAO1 infected in BALB/c mouse wound infection model assessed as reduction in wound area at 2.5 uM administered to wound once a day for 3 days and measured after 9 days in dropwise manner; format: functional; parameters: scale not given: the % may be the effect or the level left; settings: time 12 day
[3] = tested on: Pseudomonas aeruginosa; assay: Anti-motility activity against Pseudomonas aeruginosa PAO1 assessed as reduction in pili formation at 0.3125 to 10 uM incubated for 16 hrs by SEM analysis; format: functional, organism-based; settings: dose 0.3125-10 µM
[4] = tested on: Pseudomonas aeruginosa; assay: Antivirulence activity in Pseudomonas aeruginosa PAO1 assessed as reduction in pyocyanin at 10 uM production incubated for 24 hrs relative to control; format: functional; parameters: scale not given: the % may be the effect or the level left
[5] = Toxicity in BALB/c mouse assessed as lung damage by H and E staining based analysis; settings: in vivo
[6] = Toxicity in BALB/c mouse assessed as liver damage by H and E staining based analysis; format: tissue-based; settings: in vivo
[7] = tested on: Pseudomonas aeruginosa; assay: Antibiofilm activity against Pseudomonas aeruginosa PA108 assessed as inhibition of biofilm formation incubated for 24 hrs by crystal violet staining based analysis; format: functional, organism-based
[8] = Toxicity in BALB/c mouse wound infection model assessed as heart damage measured for 9 days by H and E staining based analysis; format: tissue-based; settings: in vivo, 216 h, time 9 day
[9] = tested on: Pseudomonas aeruginosa; assay: Antibiofilm activity against Pseudomonas aeruginosa PAO1 assessed as fold increase in pyoverdine level at 10 uM incubated for 2 hrs by fluorescence based analysis; format: functional
[10] = Inhibition of quorum sensing system in Pseudomonas aeruginosa PAO1-gfp assessed as reduction in fluorescence intensity at 0.3125 to 10 uM measured upto 16 hrs by GFP reporter strain assay; settings: dose 0.3125-10 µM
[11] = tested on: Pseudomonas aeruginosa; assay: Antivirulence activity in Pseudomonas aeruginosa PAO1 assessed as reduction in extracellular polysaccharides production incubated for 24 hrs; format: functional, organism-based; settings: dose 0.3125-10 µM
[12] = tested on: Pseudomonas aeruginosa; assay: Antibiofilm activity against Pseudomonas aeruginosa PAO1 assessed as inhibition of biofilm formation at 2.5 incubated for 24 hrs by crystal violet staining based analysis; format: functional
[13] = tested on: Pseudomonas aeruginosa; assay: Antibacterial activity against Pseudomonas aeruginosa PAO1 infected in BALB/c mouse wound infection model assessed as bacterial survival rate in wound at 2.5 uM administered to wound once a day for 3 days in dropwise manner in presence of tobramycin; format: functional; settings: PAO1, 72 h, time 3 day
[14] = Toxicity in BALB/c mouse wound infection model assessed as change in body weight measured for 9 days; settings: in vivo, 216 h, time 9 day
[15] = tested on: Pseudomonas aeruginosa; assay: Antibacterial activity against Pseudomonas aeruginosa PAO1 infected in BALB/c mouse wound infection model assessed as bacterial survival rate in wound at 1 mg/mL administered to wound once a day for 3 days in dropwise manner; format: functional; settings: PAO1, 72 h, time 3 day
[16] = tested on: Pseudomonas aeruginosa; assay: Antivirulence activity in Pseudomonas aeruginosa PAO1 assessed as reduction in pyocyanin production incubated for 24 hrs; format: functional, organism-based; settings: dose 10.0 µM

Structure (SMILES): COc1ccc2nc(NCC(=O)NCCCCC(=O)NO)sc2c1
- Activity [1]: Non-toxic
- Activity [2]: 55%
- Activity [3]: Active
- Activity [4]: 42%
- Activity [5]: Non-toxic
- Activity [6]: Non-toxic
- Activity [7]: Active
- Activity [8]: Non-toxic
- fold change (FC) [9]: 3.4
- inhibition [10]: inactive
- Activity [11]: Dose-dependent-effect
- inhibition (INH) [12]: 65%
- survival at 2.5 µM [13]: 0.97%
- Activity [14]: Non-toxic
- survival at 1000 µg/mL [15]: 0%
- Activity [16]: Dose-dependent-effect
